US4886822A, “Substituted anilide compounds which are useful in the treatment of arrhythmia” (Kowa Company, Ltd., priority 1987, dated 1989)
Counter-ions that a name gives are not always drawn.

Tests used:
[1] = tested on: Chloroform-Induced Arrhythmia; test: Activity on Chloroform-Induced Arrhythmia (ventricular fibrillation); format: in vivo, ICR-strain mice; conditions: Mus musculus, po, 30 mg/kg orally; ICR mice, 10 per group; chloroform vapor; read-out: Percent VF inhibition
Experimental: Activity on Chloroform-Induced Arrhythmia: ICR-strain mice having a body weight of 20 to 35 g (10 per group) were used, and the test compound was administered orally in a dose of 30 mg/kg. The mice were put in a 1-liter beaker, and observed for 20 minutes for their symptoms or conditions. Then, they were placed in a vessel saturated with a vapor of chloroform, and the time which elapsed until the animals ceased to breathe was measured. After the stopping of the breathing, the mice were taken out from the vessel and their cardiograms (second induction) were recorded by a memory oscilloscope (VC-10, made by Nippon Kodensha) and a linear corder (WTR331 made by Watanabe Measuring Instrument Co., Ltd.). The occurrence of ventricular fibrillation (VF) was evaluated by the cardiograms. The results are shown in Table 1 by percent VF inhibition.

[2] = tested on: Ouabain-Induced Arrhythmia; test: Activity on Ouabain-Induced Arrhythmia; format: in vivo, Male hybrid adult dogs; conditions: Canis lupus familiaris, iv; continuous injection into femoral vein 0.5 mg/kg/min; anaesthetized dogs; n=3 (range); read-out: Dose required complete inhibition
Experimental: Activity on Ouabain-Induced Arrhythmia: Male hybrid adult dogs weighing 9 to 17 kg were anaesthetized, and fixed in the supine position under artificial respiration. The blood pressures, heart rates and second induced cardiograms (using RA-101 made by San-ei Measuring Instrument Co., Ltd.) of the animals were measured. Ouabain was first intravenously administered in a dose of 40 μg/kg, and 30 minutes later in a dose of 20 μg/kg. Furthermore, until continuous ventricular arrhythmia was obtained, 10 μg/kg of ouabain was cumulatively administered at intervals of 15 minutes. The ventricular automaticity was examined substantially in accordance with the method of Roberts et al. (J. Pharmacol. Exp. Ther. 117, 374-384, 1956). The peripheral end of the right cervical vagus nerve was stimulated with short waves (0.4-1.9 V, 1 millisecond, 20 Hz) using an electrical stimulating device (MSE-3R made by Nippon Kodensha) for 10 seconds. […] After the administration, the vagus nerve was stimulated every minute, and the inhibition of extrasystole was observed. At the same time, the presence or absence of restoration of the cardiogram to a normal rhythm was observed using the inversion of R waves as an index in ventricular arrhythmia. The anti-arrhythmic action was evaluated such that when the normal sinus rhythm was restored and extrasystole was not induced by stimulation of the vagus nerve, the result was rated as complete inhibition.

[3] = cited from earlier work; for side effects: known/reported side effects (background)

| SMILES | inhibition in vivo at 30 mg/kg [1] | further results |
| --- | --- | --- |
| COc1ccc(-c2ccccn2)c(NC(=O)CC(C)N)c1 (stereo not drawn) [Example 1, 3-Amino-5'-methoxy-2'-(2-pyridyl)butynanilide] | 80% | – |
| Cc1ccc(-c2ccccn2)c(NC(=O)CC(C)N)c1 (stereo not drawn) [Example 8, 3-Amino-5'-methyl-2'-(2-pyridyl)butyranilide] | 90% | – |
| CC(N)CC(=O)Nc1cc(OCC(F)(F)F)ccc1-c1cccnc1 (stereo not drawn) [Example 20, 3-Amino-2'-(3-pyridyl)-5'-(2,2,2-trifluoroethoxy)butyranilide monohydrochloride] | 100% | – |
| CC(N)CC(=O)Nc1c(OCC(F)(F)F)cccc1-c1cccnc1 (stereo not drawn) [Example 23, 3-Amino-2'-(3-pyridyl)-6'-(2,2,2-trifluoroethoxy)butyranilide] | 70% | – |
| C=CCOc1ccc(-c2cccnc2)c(NC(=O)CC(C)N)c1 (stereo not drawn) [Example 28, 5'-Allyloxy-3-amino-2'-(3-pyridyl)butyranilide] | 70% | ED100 [2]: 1.5 to 2.8 mg/kg |
| C=CCOc1ccc(-c2ccccn2)cc1NC(=O)CC(C)N (stereo not drawn) [Example 30, 2'-Allyloxy-3-amino-5'-(2-pyridyl)butyranilide dihydrochloride] | 70% | – |
| CCOc1ccc(-c2cccnc2)c(NC(=O)CC(C)N)c1.Cl.Cl (stereo not drawn) [Example 33, 3-Amino-5'-ethoxy-2'-(3-pyridyl)butyranilide dihydrochloride] | 80% | ED100 [2]: 2 to 3 mg/kg |
| COc1ccc(-c2ncc[nH]2)c(NC(=O)CC(C)N)c1 (stereo not drawn) [Example 45, 3-Amino-2'-(2-imidazolyl)-5'-methoxybutyranilide] | 80% | – |
| COc1ccc(-c2nc3cccnc3[nH]2)c(NC(=O)CC(C)N)c1 (stereo not drawn) [Example 46] | 80% | – |
| COc1ccc(C(O)c2cccnc2)cc1NC(=O)CC(C)N (stereo not drawn) [Example 56, 3-Amino-5'-[hydroxy-(3-pyridyl)methyl]-2'-methoxybutyranilide hydrochloride] | 70% | – |
| CC(C)N(CCC(C(N)=O)(c1ccccc1)c1ccccn1)C(C)C (stereo not drawn) [disopyramide] | – | action on the myocardium ([3]; background): inhibiting action on the myocardium; side effects [3]: thirst, ischurin, constipation, dizziness and vomiting |
| Cc1cccc(C)c1OCC(C)N (stereo not drawn) [mexiletine, reference compound] | 50% | side effects [3]: side effects on the digestive system and the meuropsychotic system with a high frequency; activity on the central nervous system ([3]; reported (background)): has activity on the central nervous system; ED100 [2]: 2 to 4.5 mg/kg |
